# Experimental data from ChEMBL document CHEMBL1154287, “Phenylaminopyrimidines as inhibitors of Janus kinases (JAKs)” (Bioorg Med Chem Lett, 2009).
# Key:
# [1] = Oral bioavailability in Sprague-Dawley rat at 21 mg/kg; type: ADME, organism-based; details: in vivo
# [2] = Cmax in Sprague-Dawley rat at 21 mg/kg; type: ADME, organism-based; set-up: dose 21 mg/kg; details: in vivo
# [3] = Blood clearance in Sprague-Dawley rat at 21 mg/kg, iv; type: ADME, organism-based; set-up: dose 21 mg/kg, route intravenous
# [4] = Apparent permeability from basolateral to apical side in human Caco-2 cells; type: ADME, cell-based
# [5] = molecular target: Tyrosine-protein kinase JAK2 (Homo sapiens, UniProt O60674)
# Tyrosine-protein kinase JAK2, sequence (O60674 whole entry): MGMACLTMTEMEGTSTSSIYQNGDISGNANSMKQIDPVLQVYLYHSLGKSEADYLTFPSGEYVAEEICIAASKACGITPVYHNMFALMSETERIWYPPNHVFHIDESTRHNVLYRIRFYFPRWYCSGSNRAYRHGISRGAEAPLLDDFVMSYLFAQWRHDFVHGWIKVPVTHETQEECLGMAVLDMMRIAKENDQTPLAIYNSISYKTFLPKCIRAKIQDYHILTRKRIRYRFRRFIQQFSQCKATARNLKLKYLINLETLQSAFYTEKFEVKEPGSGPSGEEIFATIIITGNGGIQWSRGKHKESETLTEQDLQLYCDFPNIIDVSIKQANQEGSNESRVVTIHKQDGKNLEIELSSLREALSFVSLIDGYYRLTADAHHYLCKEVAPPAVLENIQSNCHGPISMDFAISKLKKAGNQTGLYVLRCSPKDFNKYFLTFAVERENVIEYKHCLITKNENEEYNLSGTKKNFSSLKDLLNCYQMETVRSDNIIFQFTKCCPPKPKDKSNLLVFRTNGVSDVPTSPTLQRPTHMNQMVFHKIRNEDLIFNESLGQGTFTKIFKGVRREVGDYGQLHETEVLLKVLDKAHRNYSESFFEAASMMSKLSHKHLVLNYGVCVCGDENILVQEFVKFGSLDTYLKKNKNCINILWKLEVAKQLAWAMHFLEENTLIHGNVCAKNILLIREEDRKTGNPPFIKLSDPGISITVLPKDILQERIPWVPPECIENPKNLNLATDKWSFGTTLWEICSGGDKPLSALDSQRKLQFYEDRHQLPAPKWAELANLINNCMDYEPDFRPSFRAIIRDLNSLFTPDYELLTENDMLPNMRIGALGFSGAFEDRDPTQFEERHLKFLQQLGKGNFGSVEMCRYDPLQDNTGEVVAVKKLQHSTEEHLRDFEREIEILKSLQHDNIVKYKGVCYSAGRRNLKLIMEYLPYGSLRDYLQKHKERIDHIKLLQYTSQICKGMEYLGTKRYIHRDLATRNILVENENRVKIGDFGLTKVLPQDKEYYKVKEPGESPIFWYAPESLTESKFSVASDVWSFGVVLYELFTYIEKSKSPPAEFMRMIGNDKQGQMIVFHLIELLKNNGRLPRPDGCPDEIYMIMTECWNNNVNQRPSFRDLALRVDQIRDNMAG
# Description: Inhibition of GST-tagged JAK2 kinase
# [6] = molecular target: T1, Tyrosine-protein kinase JAK3 (Homo sapiens, UniProt P52333)
# T1 sequence (P52333 whole entry): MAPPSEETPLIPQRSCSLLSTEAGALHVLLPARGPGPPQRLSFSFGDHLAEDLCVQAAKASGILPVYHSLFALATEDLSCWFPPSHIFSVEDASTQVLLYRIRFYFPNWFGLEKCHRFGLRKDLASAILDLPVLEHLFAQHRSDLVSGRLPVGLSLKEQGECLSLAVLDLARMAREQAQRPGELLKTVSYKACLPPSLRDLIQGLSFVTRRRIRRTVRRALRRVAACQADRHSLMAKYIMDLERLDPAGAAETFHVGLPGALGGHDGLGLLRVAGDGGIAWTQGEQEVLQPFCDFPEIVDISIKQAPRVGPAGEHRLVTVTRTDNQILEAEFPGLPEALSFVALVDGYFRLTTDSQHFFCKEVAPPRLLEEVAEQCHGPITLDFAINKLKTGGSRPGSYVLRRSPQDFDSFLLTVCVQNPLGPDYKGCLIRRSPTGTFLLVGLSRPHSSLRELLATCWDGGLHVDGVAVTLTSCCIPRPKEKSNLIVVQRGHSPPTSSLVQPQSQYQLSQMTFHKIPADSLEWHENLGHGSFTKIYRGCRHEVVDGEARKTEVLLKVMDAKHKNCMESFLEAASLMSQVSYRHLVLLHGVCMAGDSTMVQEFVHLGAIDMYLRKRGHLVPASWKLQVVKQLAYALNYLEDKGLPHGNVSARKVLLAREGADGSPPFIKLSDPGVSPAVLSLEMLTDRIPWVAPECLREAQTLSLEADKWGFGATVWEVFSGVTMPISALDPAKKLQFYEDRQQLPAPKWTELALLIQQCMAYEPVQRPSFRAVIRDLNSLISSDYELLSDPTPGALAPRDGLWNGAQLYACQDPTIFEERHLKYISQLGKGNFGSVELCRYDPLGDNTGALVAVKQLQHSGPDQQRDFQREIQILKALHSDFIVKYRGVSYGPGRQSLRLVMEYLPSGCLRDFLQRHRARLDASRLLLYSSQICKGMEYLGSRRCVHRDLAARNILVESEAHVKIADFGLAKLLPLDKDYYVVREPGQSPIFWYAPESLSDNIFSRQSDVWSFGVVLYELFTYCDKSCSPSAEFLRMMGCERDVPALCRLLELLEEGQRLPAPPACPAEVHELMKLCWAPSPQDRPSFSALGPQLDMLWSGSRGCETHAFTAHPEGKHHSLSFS
# Description: Inhibition of GST-tagged JAK3 kinase
# BaF3 [7] = assay: cells; details: Mus musculus, BaF3, 72 h
# Description: Antiproliferative activity against mouse BAF3 cells expressing TEL-JAK2 kinase after 72 hrs by alamar blue assay
# BaF3 [8] = assay: cells; details: Mus musculus, BaF3, 72 h; remark: listed apart in the source
# Description: Antiproliferative activity against mouse BAF3 cells expressing TEL-JAK3 kinase after 72 hrs by alamar blue assay
# cells = details: Mus musculus, CTLL-2, 72 h
# Description: Antiproliferative activity against IL-2-stimulated mouse CTLL-2 cells expressing JAK1/JAK3 after 72 hrs by alamar blue assay
# in vitro [9] = details: human, Caco-2
# Description: Apparent permeability from apical to basolateral side in human Caco-2 cells
# in vitro [10] = details: human, Caco-2; remark: listed apart in the source
# Description: Ratio of permeability from apical to basolateral side over basolateral to apical side in human Caco-2 cells
compound,measurement,setting,value
CS(=O)(=O)Nc1ccc(-c2ccnc(Nc3ccc(CN4CCS(=O)(=O)CC4)cc3)n2)cc1,bioavailability,[1],5.4%
same,Cmax,[2],270 nM
same,clearance,[3],36.6 mL/min/kg
same,Papp B→A,[4],56.4 ×10⁻⁶ cm/s
same,IC50,[5],0.002 µM
same,IC50,[6],0.587 µM
same,IC50,BaF3 [7],0.802 µM
same,IC50,BaF3 [8],3.56 µM
same,IC50,cells,2.22 µM
same,Papp A→B,in vitro [9],4.6 ×10⁻⁶ cm/s
same,efflux ratio,in vitro [10],12.3
